Source: patent US7049313B2, “ATM inhibitors” (Kudos Pharmaceuticals Ltd., priority 2002, dated 2006)

Target: T1, ATM (Homo sapiens, UniProt Q13315)
T1 construct: ATM protein was immunoprecipitated from HeLa cell nuclear extract; endogenous in cells; host or cells: HeLa cell nuclear extract (immunoprecipitate)
Assay: In vitro ATM inhibition assay (phosphorylation of GSTp53N66 on serine 15)
Type: biochemical
Experimental: In vitro ATM inhibition Assays
In order to assess the inhibitory action of the compounds against ATM in vitro, the following assay was used to determine IC50 values.
ATM protein was immunoprecipitated from HeLa cell nuclear extract using rabbit polyclonal anti-sera raised to the C-terminal ˜500 amino-acid residues of the human ATM protein. The immunoprecipitation was performed according to the methodology described by Banin, S. et al. (1998). 10 μl of immunoprecipitated ATM in Buffer C (50 mM Hepes, pH 7.4, 6 mM MgCl2, 150 mM NaCl, 0.1 mM sodium orthovanadate, 4 mM MnCl2, 0.1 mM dithiothreitol, 10% glycerol) was added to 32.5 μl of buffer C containing 1 μg of the ATM substrate GSTp53N66 in a V-bottomed 96 well polypropylene plate. The GSTp53N66 substrate is the amino terminal 66 amino acid residues of human wild type p53 fused to glutathione S-transferase. ATM phosphorylates p53 on the residue serine 15 (Banin, S. et al. (1998)). Varying concentrations of inhibitor were then added. […] After 10 minutes of incubation at 37° C., the reactions were initiated by the addition of 5 μl of 500 μM Na-ATP. After 1 hour with shaking at 37° C., 150 μl of phosphate buffered saline (PBS) was added to the reaction and the plate centrifuged at 1500 rpm for 10 minutes. 5 μl of the reaction was then transferred to a 96 well opaque white plate containing 45 μl of PBS to allow the GSTp53N66 substrate to bind to the plate wells. The plate was covered and incubated at room temperature for 1 hour with shaking before discarding the contents. The plate wells were washed twice by the addition of PBS prior to the addition of 3% (w/v) bovine serum albumin (BSA) in PBS. The plate was incubated at room temperature for 1 hour with shaking before discarding the contents and washing twice with PBS. To the wells, 50 μl of a 1:10,000 dilution of primary phosphoserine-15 antibody (Cell Signaling Technology, #9284L) in 3% BSA/PBS was added to detect the phosphorylation event on the serine 15 residue of p53 elicited by the ATM kinase. After 1 hour of incubation at room temperature with shaking, the wells were washed four times with PBS prior to the addition of an anti-rabbit HRP conjugated secondary antibody (Pierce, 31462) with shaking for 1 hour at room temperature. The wells were then washed four times with PBS before the addition of chemiluminescence reagent (NEN Renaissance, NEL105). The plate was then shaken briefly, covered with a transparent plate seal and transferred to a TopCount NXT for chemiluminescent counting. Counts per second, following a one second counting time, were recorded for each reaction.
The enzyme activity for each compound is then calculated using the following equation: […]

T1 sequence (Q13315 whole entry): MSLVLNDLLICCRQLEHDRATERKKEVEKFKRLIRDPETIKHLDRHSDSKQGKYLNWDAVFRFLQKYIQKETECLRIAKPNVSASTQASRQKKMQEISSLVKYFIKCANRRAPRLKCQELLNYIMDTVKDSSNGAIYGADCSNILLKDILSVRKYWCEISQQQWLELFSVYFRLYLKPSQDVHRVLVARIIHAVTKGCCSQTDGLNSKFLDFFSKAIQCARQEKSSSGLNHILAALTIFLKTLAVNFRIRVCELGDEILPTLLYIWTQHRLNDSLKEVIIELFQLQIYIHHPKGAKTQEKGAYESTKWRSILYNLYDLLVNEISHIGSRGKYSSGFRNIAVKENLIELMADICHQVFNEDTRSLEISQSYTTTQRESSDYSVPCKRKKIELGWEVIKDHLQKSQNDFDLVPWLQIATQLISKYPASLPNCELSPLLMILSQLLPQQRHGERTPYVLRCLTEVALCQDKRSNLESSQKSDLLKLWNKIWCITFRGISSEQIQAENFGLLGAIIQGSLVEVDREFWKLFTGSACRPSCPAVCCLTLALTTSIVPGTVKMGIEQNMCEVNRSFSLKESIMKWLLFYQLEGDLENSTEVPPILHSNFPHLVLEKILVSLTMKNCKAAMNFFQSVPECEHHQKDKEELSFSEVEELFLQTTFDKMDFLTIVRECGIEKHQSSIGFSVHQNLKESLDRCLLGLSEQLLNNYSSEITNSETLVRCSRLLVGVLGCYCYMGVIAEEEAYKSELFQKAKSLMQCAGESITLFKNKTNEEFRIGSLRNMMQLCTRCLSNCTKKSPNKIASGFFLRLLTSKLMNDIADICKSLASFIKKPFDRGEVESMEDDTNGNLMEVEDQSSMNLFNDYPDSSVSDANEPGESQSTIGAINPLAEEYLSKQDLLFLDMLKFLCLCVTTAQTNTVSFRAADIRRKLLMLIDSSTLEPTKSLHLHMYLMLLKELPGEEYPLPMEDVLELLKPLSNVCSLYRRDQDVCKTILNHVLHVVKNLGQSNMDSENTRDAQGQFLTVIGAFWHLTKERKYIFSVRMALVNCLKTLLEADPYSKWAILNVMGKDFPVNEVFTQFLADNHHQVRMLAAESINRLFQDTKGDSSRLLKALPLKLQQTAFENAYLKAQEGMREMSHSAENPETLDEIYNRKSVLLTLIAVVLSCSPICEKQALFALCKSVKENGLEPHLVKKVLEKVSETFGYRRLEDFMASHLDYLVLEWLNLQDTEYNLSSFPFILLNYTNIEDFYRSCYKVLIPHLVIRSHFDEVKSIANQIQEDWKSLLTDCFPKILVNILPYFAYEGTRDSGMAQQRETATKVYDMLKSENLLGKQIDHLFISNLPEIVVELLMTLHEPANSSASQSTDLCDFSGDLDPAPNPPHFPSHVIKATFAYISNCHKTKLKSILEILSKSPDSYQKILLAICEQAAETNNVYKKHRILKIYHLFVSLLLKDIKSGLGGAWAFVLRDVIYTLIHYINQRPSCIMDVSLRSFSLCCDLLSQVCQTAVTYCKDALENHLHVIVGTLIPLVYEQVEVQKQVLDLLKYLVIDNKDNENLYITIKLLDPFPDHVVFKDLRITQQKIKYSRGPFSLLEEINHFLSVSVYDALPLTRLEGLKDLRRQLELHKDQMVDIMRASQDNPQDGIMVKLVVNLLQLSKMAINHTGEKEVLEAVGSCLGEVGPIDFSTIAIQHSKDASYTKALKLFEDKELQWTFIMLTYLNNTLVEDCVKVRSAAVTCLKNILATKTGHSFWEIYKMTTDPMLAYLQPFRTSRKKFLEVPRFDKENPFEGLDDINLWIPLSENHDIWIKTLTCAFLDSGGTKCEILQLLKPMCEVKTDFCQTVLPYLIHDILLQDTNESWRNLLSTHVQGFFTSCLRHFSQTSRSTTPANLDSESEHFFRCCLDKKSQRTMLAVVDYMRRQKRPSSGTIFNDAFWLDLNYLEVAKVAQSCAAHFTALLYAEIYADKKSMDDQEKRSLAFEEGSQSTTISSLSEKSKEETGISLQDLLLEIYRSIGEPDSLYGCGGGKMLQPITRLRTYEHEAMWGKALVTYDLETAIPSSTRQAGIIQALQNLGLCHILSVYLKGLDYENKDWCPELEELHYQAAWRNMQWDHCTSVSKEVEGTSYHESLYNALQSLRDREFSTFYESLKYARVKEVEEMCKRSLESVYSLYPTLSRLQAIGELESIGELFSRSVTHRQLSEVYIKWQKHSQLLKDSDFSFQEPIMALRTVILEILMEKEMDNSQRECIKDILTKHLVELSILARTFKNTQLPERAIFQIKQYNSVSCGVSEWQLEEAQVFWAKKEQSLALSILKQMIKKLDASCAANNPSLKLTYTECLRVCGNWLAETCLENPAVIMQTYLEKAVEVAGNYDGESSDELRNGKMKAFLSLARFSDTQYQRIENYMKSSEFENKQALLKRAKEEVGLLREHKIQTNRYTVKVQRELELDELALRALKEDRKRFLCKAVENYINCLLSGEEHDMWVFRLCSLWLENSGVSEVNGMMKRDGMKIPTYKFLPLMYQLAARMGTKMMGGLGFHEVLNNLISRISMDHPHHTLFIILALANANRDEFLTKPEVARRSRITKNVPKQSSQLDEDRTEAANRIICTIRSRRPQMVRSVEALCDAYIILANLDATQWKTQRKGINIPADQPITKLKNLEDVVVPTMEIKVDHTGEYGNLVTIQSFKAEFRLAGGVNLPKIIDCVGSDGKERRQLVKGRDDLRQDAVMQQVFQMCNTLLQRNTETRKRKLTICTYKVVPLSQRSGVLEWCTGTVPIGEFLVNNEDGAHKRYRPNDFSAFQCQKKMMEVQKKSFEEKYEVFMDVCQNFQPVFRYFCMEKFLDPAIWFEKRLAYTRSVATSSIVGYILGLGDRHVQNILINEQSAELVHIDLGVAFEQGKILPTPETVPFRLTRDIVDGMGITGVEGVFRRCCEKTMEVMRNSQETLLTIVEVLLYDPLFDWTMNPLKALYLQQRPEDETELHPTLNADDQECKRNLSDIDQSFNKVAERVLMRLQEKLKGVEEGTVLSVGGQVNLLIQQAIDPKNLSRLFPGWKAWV

Row | IC50 | Compound
1 | < 200 nM | CC(C)(C)OC(=O)N1c2ccccc2Sc2c(-c3cc(=O)cc(N4CCOCC4)o3)cccc21 [Compound 134, 4-(6-Morpholin-4-yl-4-oxo-4H-pyran-2-yl)-phenothiazine-10-carboxylic acid tert-butyl ester]
2 | < 20000 nM | O=c1cc(-c2ccccc2Sc2ccccc2)oc(N2CCOCC2)c1 [Compound 9, 2-(2-Phenylsulfanyl-phenyl)-6-morpholin-4-yl-pyran-4-one]
3 | < 200 nM | O=C(NCCN1CCCC1)c1ccc2c(c1)Sc1cccc(-c3cc(=O)cc(N4CCOCC4)o3)c1S2 [Compound 167]
4 | < 200 nM | Cc1ccoc1C(=O)Nc1ccc(-c2cc(=O)cc(N3CCOCC3)o2)c2c1Cc1ccccc1S2 [Compound 129]
5 | < 200 nM | CC(C)(C)OC(=O)Nc1ccc(-c2cc(=O)cc(N3CCOCC3)o2)c2c1Cc1ccccc1S2 [Compound 127]
6 | < 200 nM | CN(CCc1ccccn1)C(=O)c1ccc2c(c1)Sc1cccc(-c3cc(=O)cc(N4CCOCC4)o3)c1S2 [Compound 174]
7 | < 200 nM | O=C(CNCCCN1CCOCC1)Nc1ccc2c(c1)Cc1cccc(-c3cc(=O)cc(N4CCOCC4)o3)c1S2 [Compound 62]
8 | < 200 nM | O=C(Nc1ccc2c(c1)Cc1cccc(-c3cc(=O)cc(N4CCOCC4)o3)c1S2)c1ccno1 [Compound 47]
9 | < 200 nM | NCCNCCC(=O)Nc1ccc2c(c1)Cc1cccc(-c3cc(=O)cc(N4CCOCC4)o3)c1S2 [Compound 75]
10 | < 20000 nM | O=c1cc(-c2ccc(F)c3c(=O)c4ccccc4sc23)oc(N2CCOCC2)c1 [Compound 13, 2-(1-Fluoro-9-oxo-9H-thioxanthen-4-yl)-6-morpholin-4-yl-pyran-4-one]
11 | < 200 nM | O=C(Nc1ccc(-c2cc(=O)cc(N3CCOCC3)o2)c2c1Cc1ccccc1S2)c1cccnc1 [Compound 119]
12 | < 200 nM | NCCC(=O)Nc1ccc2c(c1)Cc1cccc(-c3cc(=O)cc(N4CCOCC4)o3)c1S2 [Compound 84]
13 | < 200 nM | COCCN(CCOC)CCC(=O)Nc1ccc2c(c1)Cc1cccc(-c3cc(=O)cc(N4CCOCC4)o3)c1S2 [Compound 73]
14 | < 200 nM | Nc1ccc(-c2cc(=O)cc(N3CCOCC3)o2)c2c1Cc1ccccc1S2 [Compound 106, 2-(1-Amino-9H-thioxanthen-4-yl)-6-morpholin-4-yl-pyran-4-one]
15 | < 200 nM | O=c1cc(-c2ccc(O)c3c2Cc2ccccc2S3)oc(N2CCOCC2)c1 [Compound 87, 2-(4-Hydroxy-9H-thioxanthen-1yl)-6-morpholin-4-yl-pyran-4-one]
16 | < 200 nM | CCN(CC)CCNC(=O)c1ccc2c(c1)Sc1cccc(-c3cc(=O)cc(N4CCOCC4)o3)c1S2 [Compound 181]
17 | < 200 nM | O=C(CN1CCCCC1)Nc1ccc2c(c1)Cc1cccc(-c3cc(=O)cc(N4CCOCC4)o3)c1S2 [Compound 51]
18 | < 200 nM | O=c1cc(-c2ccc(F)c3c2Sc2ccccc2C3)oc(N2CCOCC2)c1 [Compound 17, 2-(1-Fluoro-9H-thioxanthen-4-yl)-6-morpholin-4-yl-pyran-4-one]
19 | < 200 nM | CCCCNC(=O)c1ccc2c(c1)Sc1cccc(-c3cc(=O)cc(N4CCOCC4)o3)c1S2 [Compound 143]
20 | < 200 nM | CN1CCCN(CC(=O)Nc2ccc3c(c2)Cc2cccc(-c4cc(=O)cc(N5CCOCC5)o4)c2S3)CC1 [Compound 59]
21 | < 200 nM | CCCNC(=O)c1ccc2c(c1)Sc1cccc(-c3cc(=O)cc(N4CCOCC4)o3)c1S2 [Compound 144]
22 | < 200 nM | COC(=O)C(=O)Nc1ccc2c(c1)Cc1cccc(-c3cc(=O)cc(N4CCOCC4)o3)c1S2 [Compound 34]
23 | < 200 nM | COCCN(CCOC)CC(=O)Nc1ccc2c(c1)Cc1cccc(-c3cc(=O)cc(N4CCOCC4)o3)c1S2 [Compound 55]
24 | < 200 nM | O=C(CCN1CCCNCC1)Nc1ccc2c(c1)Cc1cccc(-c3cc(=O)cc(N4CCOCC4)o3)c1S2 [Compound 78]
25 | < 200 nM | O=C(c1ccc2c(c1)Sc1cccc(-c3cc(=O)cc(N4CCOCC4)o3)c1S2)N1CCCCCC1 [Compound 161]
26 | < 200 nM | Cc1noc(C)c1C(=O)Nc1ccc2c(c1)Cc1cccc(-c3cc(=O)cc(N4CCOCC4)o3)c1S2 [Compound 33]
27 | < 200 nM | O=C(c1ccc2c(c1)Sc1cccc(-c3cc(=O)cc(N4CCOCC4)o3)c1S2)N1CCCCC1 [Compound 157]
28 | < 200 nM | O=C(Nc1ccc2c(c1)Cc1cccc(-c3cc(=O)cc(N4CCOCC4)o3)c1S2)c1csc(-c2cccs2)n1 [Compound 46]

Row | IC50 | Compound
29 | < 200 nM | CCNC(=O)c1ccc2c(c1)Sc1cccc(-c3cc(=O)cc(N4CCOCC4)o3)c1S2 [Compound 142]
30 | < 200 nM | O=C(CCN1CCCC1)Nc1ccc2c(c1)Cc1cccc(-c3cc(=O)cc(N4CCOCC4)o3)c1S2 [Compound 76]
31 | < 200 nM | O=C(Nc1ccc(-c2cc(=O)cc(N3CCOCC3)o2)c2c1Cc1ccccc1S2)c1ccco1 [Compound 107]
32 | < 200 nM | Cc1cc(C(=O)Nc2ccc3c(c2)Cc2cccc(-c4cc(=O)cc(N5CCOCC5)o4)c2S3)c(C)o1 [Compound 42]
33 | < 200 nM | O=C(CN1CCCCCC1)Nc1ccc2c(c1)Cc1cccc(-c3cc(=O)cc(N4CCOCC4)o3)c1S2 [Compound 61]
34 | < 200 nM | O=c1cc(-c2ccc(OCCNCCO)c3c2Cc2ccccc2S3)oc(N2CCOCC2)c1 [Compound 93]
35 | < 200 nM | COC(=O)CCC(=O)Nc1ccc2c(c1)Cc1cccc(-c3cc(=O)cc(N4CCOCC4)o3)c1S2 [Compound 39]
36 | < 200 nM | O=C(NCC1CCCCC1)c1ccc2c(c1)Sc1cccc(-c3cc(=O)cc(N4CCOCC4)o3)c1S2 [Compound 154]
37 | < 200 nM | CC(C)(C)OC(=O)N1CCN(CCNC(=O)c2ccc3c(c2)Sc2cccc(-c4cc(=O)cc(N5CCOCC5)o4)c2S3)CC1 [Compound 180]
38 | < 200 nM | COc1ccc(CNCCC(=O)Nc2ccc3c(c2)Cc2cccc(-c4cc(=O)cc(N5CCOCC5)o4)c2S3)cc1 [Compound 81]
39 | < 200 nM | O=C(Nc1ccc2c(c1)Cc1cccc(-c3cc(=O)cc(N4CCOCC4)o3)c1S2)c1ccc2c(c1)CCO2 [Compound 43]
40 | < 200 nM | O=C(NCCc1cnc[nH]1)c1ccc2c(c1)Sc1cccc(-c3cc(=O)cc(N4CCOCC4)o3)c1S2 [Compound 176]
41 | < 200 nM | CNC(=O)c1ccc2c(c1)Sc1cccc(-c3cc(=O)cc(N4CCOCC4)o3)c1S2 [Compound 139]
42 | < 200 nM | O=C(CNCCO)Nc1ccc2c(c1)Cc1cccc(-c3cc(=O)cc(N4CCOCC4)o3)c1S2 [Compound 56]
43 | < 200 nM | CC(=O)Oc1cccc(C(=O)Nc2ccc(-c3cc(=O)cc(N4CCOCC4)o3)c3c2Cc2ccccc2S3)c1C [Compound 123]
44 | < 200 nM | O=c1cc(-c2cccc3c2Sc2ccccc2CC3)oc(N2CCOCC2)c1 [Compound 133, 2-(10,11-Dihydro-dibenzo[b,f]thiepin-4-yl)-6-morpholin-4-yl-pyran-4-one]
45 | < 200 nM | O=C(CN1CCCNCC1)Nc1ccc2c(c1)Cc1cccc(-c3cc(=O)cc(N4CCOCC4)o3)c1S2 [Compound 60]
46 | < 200 nM | COC[C@@H]1CCCN1NC(=O)c1ccc2c(c1)Sc1cccc(-c3cc(=O)cc(N4CCOCC4)o3)c1S2 [Compound 163]
47 | < 200 nM | O=C(CCNCCCN1CCOCC1)Nc1ccc2c(c1)Cc1cccc(-c3cc(=O)cc(N4CCOCC4)o3)c1S2 [Compound 80]
48 | < 200 nM | O=C(NN1CCOCC1)c1ccc2c(c1)Sc1cccc(-c3cc(=O)cc(N4CCOCC4)o3)c1S2 [Compound 165]
49 | < 200 nM | O=C(NCCN1CCOCC1)c1ccc2c(c1)Sc1cccc(-c3cc(=O)cc(N4CCOCC4)o3)c1S2 [Compound 177]
50 | < 200 nM | O=C(Nc1ccc2c(c1)Cc1cccc(-c3cc(=O)cc(N4CCOCC4)o3)c1S2)c1ccco1 [Compound 27]
51 | < 200 nM | O=C(NNC(=O)c1ccc2c(c1)Sc1cccc(-c3cc(=O)cc(N4CCOCC4)o3)c1S2)c1ccccc1 [Compound 162]
52 | < 200 nM | CN1CCCC1CCNC(=O)c1ccc2c(c1)Sc1cccc(-c3cc(=O)cc(N4CCOCC4)o3)c1S2 (stereo not shown) [Compound 168]
53 | < 200 nM | O=C(Nc1ccc(-c2cc(=O)cc(N3CCOCC3)o2)c2c1Cc1ccccc1S2)c1ccc2nsnc2c1 [Compound 112]
54 | < 200 nM | O=c1cc(-c2ccc(OCCSc3ncn[nH]3)c3c2Cc2ccccc2S3)oc(N2CCOCC2)c1 [Compound 102]
55 | < 200 nM | COC(=O)C(=O)Nc1ccc(-c2cc(=O)cc(N3CCOCC3)o2)c2c1Cc1ccccc1S2 [Compound 116]
